The target of assay [1] is T1, human A2a adenosine receptor (Homo sapiens, UniProt P29274).
T1 construct: purchased PerkinElmer RB-HA2a; host or cells: HEK293 cell plasma membranes
Kind of assay: Ligand binding assay for adenosine A2a receptor ([3H]CGS21680, HEK293 membranes). The settings on record: radioligand [3H]CGS21680, HEK293 plasma membrane. As to the method: Ligand Binding Assay for Adenosine A2a Receptor
Ligand binding assay of adenosine A2a receptor was performed using plasma membrane of HEK293 cells containing human A2a adenosine receptor (PerkinElmer, RB-HA2a) and radioligand [^3H]CGS21680 (PerkinElmer, NET1021). Assay was set up in 96-well polypropylene plate in total volume of 200 μL by sequentially adding 20 μL1:20 diluted membrane, 130 μL assay buffer (50 mM Tris.HCl, pH7.4 10 mM MgCl2, 1 mM EDTA) containing [^3H] […] Nonspecific binding was determined by […] NECA. Reaction was carried out at room temperature for 2 hours before filtering through 96-well GF/C filter plate pre-soaked in 50 mM Tris.HCl, pH7.4 containing 0.3% polyethylenimine. Plates were then washed 5 times with cold 50 mM Tris.HCl, pH7.4, dried and sealed at the bottom. Microscintillation fluid 30 μl was added to each well and the top sealed. Plates were counted on Packard Topcount for [^3H]. Data was analyzed in Microsoft Excel and GraphPad Prism programs.

Assay [2] addresses T2, A1 (Homo sapiens, UniProt P30542).
T2 sequence (P30542 1-326): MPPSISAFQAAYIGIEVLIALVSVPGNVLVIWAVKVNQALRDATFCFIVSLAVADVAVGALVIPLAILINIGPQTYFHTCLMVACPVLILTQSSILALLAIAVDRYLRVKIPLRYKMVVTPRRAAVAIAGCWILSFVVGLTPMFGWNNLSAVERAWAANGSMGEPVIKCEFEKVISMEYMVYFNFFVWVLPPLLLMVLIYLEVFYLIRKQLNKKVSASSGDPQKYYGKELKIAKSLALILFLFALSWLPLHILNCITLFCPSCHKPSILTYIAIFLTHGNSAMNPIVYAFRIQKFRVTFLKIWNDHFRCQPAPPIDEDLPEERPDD
Kind of assay: A1 antagonist function. In kind it is cell-based.

Assay [3] addresses T3, human adenosine A2a receptors (Homo sapiens, UniProt P29274).
T3 construct: expressed in transfected cells; host or cells: CHO-K1 cells with cAMP-inducible beta-galactosidase reporter gene
Kind of assay: Adenosine A2a receptor functional assay (antagonist mode, cAMP-inducible beta-galactosidase reporter, CHO-K1 cells, 50 nM NECA). The settings on record: read-out: Ki A2a antagonist function. The class given is cell-based. The protocol:
Adenosine A2a Receptor Functional Assay
CHO—K1 cells overexpressing human adenosine A2a receptors and containing cAMP-inducible beta-galactosidase reporter gene were seeded at 40-50K/well into 96-well tissue culture plates and cultured for two days. On assay day, cells were washed once with 200 μL assay medium (F-12 nutrient mixture/0.1% BSA). For agonist assay, adenosine A2a receptor agonist NECA was subsequently added and cell incubated at 37° C., 5% CO2 for 5 hrs before stopping reaction. In the case of antagonist assay, cells were incubated with antagonists for 5 minutes at R.T. followed by addition of 50 nM NECA. Cells were then incubated at 37° C., 5% CO2 for 5 hrs before stopping experiments by washing cells with PBS twice. 50 μL 1× lysis buffer (Promega, 5× stock solution, needs to be diluted to 1× before use) was added to each well and plates frozen at −20° C. For β-galactosidase enzyme colorimetric assay, plates were thawed out at room temperature and 50 μL 2× assay buffer (Promega) added to each well. Color was allowed to develop at 37° C. for 1 h or until reasonable signal appeared. Reaction was then stopped with 150 μL 1M sodium carbonate. […] Data was analyzed in Microsoft Excel and GraphPad Prism programs.

SMILES strings stand for the structures.

By Ki is commonly meant a measure of affinity in units of concentration, obtained from inhibition or displacement.

T1 sequence (P29274 whole entry): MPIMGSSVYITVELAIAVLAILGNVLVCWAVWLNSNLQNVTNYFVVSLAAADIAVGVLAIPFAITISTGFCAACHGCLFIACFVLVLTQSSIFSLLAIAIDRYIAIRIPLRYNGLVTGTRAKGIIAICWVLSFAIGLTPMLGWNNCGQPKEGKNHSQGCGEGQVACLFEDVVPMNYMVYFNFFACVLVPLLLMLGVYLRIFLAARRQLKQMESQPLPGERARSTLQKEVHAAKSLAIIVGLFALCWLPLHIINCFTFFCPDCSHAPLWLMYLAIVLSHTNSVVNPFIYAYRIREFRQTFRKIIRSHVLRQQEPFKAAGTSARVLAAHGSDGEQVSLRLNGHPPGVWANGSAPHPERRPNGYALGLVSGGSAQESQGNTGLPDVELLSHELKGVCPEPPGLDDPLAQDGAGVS
T3 sequence (P29274 whole entry): as above

Take `Nc1nc(-c2ccco2)c2c(n1)-c1cccc(N)c1C2=O` [Compound 20]: the Ki was found to be 0.05 nM in assay [1], 0.91 nM in assay [2] and 0.126 nM in assay [3].

`COc1ccc(-c2nc(N)nc3c2C(=O)c2ccccc2-3)cn1` [Compound 30] yielded a Ki in assay [1] of 31.6 nM.

On to `CC(O)C(O)c1cccc2c1-c1nc(N)nc(-c3ccccc3)c1C2=O` (stereo not drawn) [Compound 33], for which the Ki was 0.175 nM in assay [1], 0.021 nM in assay [2] and 0.34 nM in assay [3].

Turning to `CS(=O)(=O)c1nc(N)nc2c1C(=O)c1ccccc1-2` [Compound 40, 2-Amino-4-methanesulfonyl-indeno[1,2-d]pyrimidin-5-one], affinity in assay [1] was put at a Ki of 2720 nM.

Consider `CN1CCN(Cc2cccc3c2C(=O)c2c(-c4ccccc4)nc(N)nc2-3)CC1` [Compound 50], for which affinity in assay [1] was put at a Ki of 80.2 nM.

Take `Nc1nc(-c2ccccc2)c2c(n1)-c1cccc(CN3CCN(CCO)CC3)c1C2=O` [Compound 58]: the Ki in assay [1] was determined as 30.6 nM; in assay [2], 61 nM; in assay [3], 11.7 nM.

`CN(C)CCN(C)C(=O)c1c(N)nc(-c2ccco2)c2c1-c1ccccc1C2=O` [Compound 77, 9H-indeno[2,1-c]pyridine-4-carboxylic acid, 3-amino-1-furan-2-yl-9-oxo-, (2-dimethylamino-ethyl)-methyl-amide] came in with a Ki in assay [2] of over 500 nM.

In the case of `CC(CN(C)C)NC(=O)c1c(N)nc(-c2ccco2)c2c1-c1ccccc1C2=O` (stereo not drawn) [Compound 78, 9H-indeno[2,1-c]pyridine-4-carboxylic acid, 3-amino-1-furan-2-yl-9-oxo-, (2-dimethylamino-1-methyl-ethyl)-amide], in assay [2], the Ki is over 500 nM.

In turn, `CN(C)CCOC(=O)c1c(N)nc(-c2ccsc2)c2c1-c1ccccc1C2=O` [Compound 93] gave a Ki in assay [1] of 64 nM.

Consider `C[C@@H](CN(C)C)OC(=O)c1c(N)nc(-c2ccco2)c2c1-c1ccccc1C2=O` [Compound 96], for which the Ki turned out to be 48.5 nM in assay [1], 52.5 nM in assay [2] and 10.1 nM in assay [3].

(Values after patent US7759356B2, “Arylindenopyridines and arylindenopyrimidines and related therapeutic and prophylactic methods” (Janssen Pharmaceutica, N.V., priority 2002, dated 2010).)
